A melting point compilation (Tetko et al.; mined from patent text by program, amines drawn as free bases though some values may be those of a salt)

First: OCCOCc1c(Br)c(Br)c(COCCO)c(Br)c1Br
Second: NC(=O)c1c(OCc2c(F)cc(Br)cc2F)nsc1NC(=O)NCCCCN1CCCC1
The melting point of the first is lower: 145 to 147 °C for the first, 208 °C for the second.

Compared with `CC1CC(=O)N(c2ccc(F)cc2)C(=S)C1` (stereo unspecified), `COc1cc(C(C)=O)ccc1-c1ccc(F)cc1` is lower in melting point: 84.5 to 87.5 °C for the first, 75 to 77 °C for the second.

First: Cc1c(-c2ccccc2)oc2c(C#N)cccc12
Second: O=C(O)Cc1ccc(-c2onc3ccccc23)cc1
The melting point of the first is lower: 86 to 87 °C for the first, 179 to 181 °C for the second.

First: NCC1CCN(CC(=O)Nc2cccc3c2C(=O)c2c-3n[nH]c2-c2ccc(N3CCOCC3)cc2)CC1
Second: CCNC(=O)CCCC1CCN(Cc2cnc3c(C)c(NC(=O)c4ccc(-c5ccc(F)cc5)cc4)ccc3c2)CC1
The melting point of the first is higher: 240 °C for the first, 217 to 220 °C for the second.

First: CC1(C)Oc2ccc(C#N)cc2[C@@H](NC=O)[C@@H]1OC=O (relative stereo)
Second: Cc1ccc(Nc2nc(-c3cccc(C#N)c3)cs2)nc1
The melting point of the first is lower: 171 to 172 °C for the first, 268 to 272 °C for the second.

First: Cc1oc(-c2ccccc2)nc1CCOc1ccc(NC2SC(=O)NC2=O)cc1 (stereo unspecified)
Second: COc1cccc(-c2[nH]c3ccc(OCc4ccccc4)cc3c2C)c1
The melting point of the first is higher: 179 to 180 °C for the first, 107 to 109 °C for the second.

First: O=C(NCC(F)(F)F)c1ccc(-c2ccc3nnn(Cc4ccc5ncccc5c4)c3n2)cc1F
Second: NC(=O)c1nccc(-c2ccc(Oc3ccc(F)cc3)cc2)n1
The melting point of the first is higher: 194 to 196 °C for the first, 180 to 182 °C for the second.

Compared with `CCCNCCC(=O)Nc1ccc2c(c1)C(=O)c1cc(NC(=O)CCNCCC)ccc1C2=O`, `CCOC(=O)Nc1cccc(C(=O)Nc2ccc3ccc(OC)nc3n2)c1` is lower in melting point: 170 °C for the first, 120 °C for the second.

First: CNC(=O)c1cc(-n2cnn(Cc3ccc(F)cc3)c2=O)n[nH]1
Second: CN1Cc2cncn2-c2ccc(F)cc2C1=O
The melting point of the first is higher: 268 to 269 °C for the first, 236 °C for the second.

Compared with `CN1CCN(c2ccc3c(=O)c(C(=O)O)cn4c3c2CCC4)CC1`, `C[C@H]1CCCN(C(=O)[C@@H]2Cc3ccccc3N2c2ccc(=O)n(C)n2)C1` is lower in melting point: 278 to 280 °C for the first, 231 to 233 °C for the second.

First: Cc1cc(Oc2ccccc2)c(NC(=O)OCc2ccccc2)c(=O)n1CC(=O)O
Second: Cc1cc(SCc2ccc(-c3ccccc3)cc2)ccc1OCC(=O)O
The melting point of the first is lower: 108 to 110 °C for the first, 138 °C for the second.

First: CC1(C)CC(=O)c2c(SCc3ccco3)sc(-c3cc[nH]n3)c2C1
Second: CCOC(=O)c1[nH]c2cc(Cl)cc(Cl)c2c1NCCC(=O)c1ccccc1
The melting point of the first is higher: 198 to 200 °C for the first, 195 to 197 °C for the second.

First: Nc1cc(I)ccc1Nc1cccc(-n2cccn2)c1
Second: COc1ccc(C(=O)Nc2cccc(Cl)c2)cc1N
The melting point of the first is lower: 134 to 135 °C for the first, 144 to 146 °C for the second.

First: Oc1cnccc1CCCOc1cccnc1Sc1cccc(Br)c1
Second: O=S(=O)(Nc1ccccc1COc1cccc2cccnc12)c1ccc(F)cc1
The melting point of the first is higher: 169 to 171 °C for the first, 121 to 122 °C for the second.

First: COc1ccc(-c2cc(C)cn2-c2ccc(S(C)(=O)=O)cc2)cc1
Second: COc1ccc(NN=C(Sc2cccc(OC)c2)C(C)=O)cc1
The melting point of the first is higher: 159 to 161 °C for the first, 97 to 99 °C for the second.

First: CNC(=O)NS(=O)(=O)c1cc2c(cc1OC)OCCC2CNC(=O)c1cc(Cl)ccc1OC (single isomer, unassigned; (+))
Second: COC(=O)c1ccc(Cn2nc(CO)c3ccc(C(=O)NCC4CCCC4)cc32)c(OC)c1
The melting point of the first is lower: 147 to 148 °C for the first, 187 to 188 °C for the second.

First: Cc1c(-c2cn(C)c(=O)c(Nc3ccc(C4C(=O)N(C)CCN4C(=O)OC(C)(C)C)cc3)n2)cccc1N1Cc2cc(C(C)(C)C)sc2C1=O (stereo unspecified)
Second: CN1CCC(c2ccc(Nc3cc(-c4cccc(-n5ncc6cc(C(C)(C)C)cc(F)c6c5=O)c4CO)nn(C)c3=O)nn2)CC1
The melting point of the first is lower: 120 to 123 °C for the first, 260 to 265 °C for the second.

First: NC(=O)c1c(C(F)(F)F)nn(-c2c(Cl)cc(C(F)(F)F)cc2Cl)c1N
Second: NS(=O)(=O)c1ccc([C@H]2[C@H](C(=O)Nc3ccc(C(F)(F)F)cc3Cl)C23CCCC3)cc1 (relative stereo)
The melting point of the first is higher: 169 to 171 °C for the first, 111 to 113 °C for the second.

First: NC(=O)c1nc(C2OC(CO)C(O)C2O)n[nH]1 (stereo unspecified)
Second: NC(=O)c1nc2cc(F)c([N+](=O)[O-])cc2[nH]c1=O
The melting point of the first is lower: 193 to 195 °C for the first, over 300 °C for the second.

`O=C1NC(=S)SC1=Cc1cccc(OCc2ccc(C(=O)c3ccccc3)cc2)c1` and `O=C(Nc1ccc(C(=O)c2ccccc2)cc1)c1ccc(-c2ccccc2)cc1` cannot be ordered by melting point: 212 to 214 °C for the first, 212 to 213 °C for the second.

First: COc1cc(C(=O)N2Cc3ccccc3Cc3ccccc32)ccc1NC(=O)c1ccccc1C
Second: Cc1ccccc1OCC(=O)Nc1c(C)cccc1C(=O)O
The melting point of the first is higher: 209 to 210 °C for the first, 133 to 136 °C for the second.

First: CC(=O)c1cc2c(cc1Cl)C(C)(C)CC2(C)C
Second: CC(=O)Nc1c(Cl)ccc(C)c1Cl
The melting point of the first is lower: 69 to 71 °C for the first, 180 to 182 °C for the second.

Compared with `O=C1Cc2cc(NC(=O)C(=O)N3CCC(Cc4ccc(F)cc4)CC3)ccc2N1`, `N#CC(C(=O)Nc1ccc(S(=O)(=O)C(F)(F)F)cc1)=C(O)C1CC1` is higher in melting point: 152 to 154 °C for the first, 168 to 170 °C for the second.

First: CC1CCC(N(CC2CCC(CN(C(=O)Nc3ccc(N4CCCCC4)cc3)C3CCC(C)CC3)CC2)C(=O)Nc2ccc(N3CCCCC3)cc2)CC1 (stereo unspecified)
Second: CC1CCC(C(C)C)C(c2ccc3c(c2)C(c2ccccc2)(C(F)(F)F)c2cc(C4CC(C)CCC4C(C)C)ccc2O3)C1 (stereo unspecified)
The melting point of the first is higher: 161 to 165 °C for the first, 150 to 151 °C for the second.

First: Cc1c(Cl)[nH]c(=O)n(Cc2ccccc2)c1=O
Second: N#CCC1CN(Cc2ccccc2)CCO1 (stereo unspecified)
The melting point of the first is higher: 202 to 205 °C for the first, 62 °C for the second.

First: COCC(COC)Nc1cc(C)nn2c(-c3ccc(Cl)cc3Cl)c(C)cc12
Second: CNC(=O)c1cnn(-c2ccc(Cl)cc2Cl)c1C#N
The melting point of the first is lower: 154 to 155 °C for the first, 182 to 183 °C for the second.

First: COc1ccc2c(C(=O)C3CSC(c4cccnc4)N3)c[nH]c2c1 (stereo unspecified)
Second: COc1cc2[nH]ccc(=O)c2cc1OC
The melting point of the first is lower: 86 to 88 °C for the first, 120 to 122 °C for the second.

Compared with `Cn1nc(-c2cnc(N)nc2-c2ccccc2Br)ccc1=O`, `Cc1nc2c(N)nc3ccccc3c2n1CCCCOCC#Cc1ccccc1` is lower in melting point: over 250 °C for the first, 109 to 110 °C for the second.

First: CSc1nsc(NC(=O)C(C)(C)C)c1C(N)=O
Second: Cc1cc(C(C)(C)C(=O)O)ccc1O
The melting point of the first is lower: 142 to 143 °C for the first, 145 to 146 °C for the second.

Compared with `CC(C)(C)OC(=O)C1C(C=CC(=O)O)C1(C)C` (stereo unspecified), `CCOP(=O)(OCC)SCS(=O)C(C)(C)C` (stereo unspecified) is lower in melting point: 94 °C for the first, 34.5 to 36 °C for the second.

First: CCOC(=O)N1CCN(CCNc2ncnc3c2sc2nc(N4CCCC4)c4c(c23)CC(C)(C)CC4)CC1
Second: CC1(C)Cc2c(c(N3CCOCC3)nc3sc4c(NCC(=O)N5CCOCC5)ncnc4c23)CO1
The melting point of the first is lower: 76.2 to 77.8 °C for the first, 209 to 210 °C for the second.

Compared with `O[C@@H](CNCCOc1ccc2oc(-c3noc(C(F)(F)F)n3)cc2c1)COc1ccccc1`, `Cc1cc(OCc2oc(-c3ccc(C(F)(F)F)cc3)nc2C)ccc1/C=C/C(=O)O` is higher in melting point: 108 to 113 °C for the first, 155 to 165 °C for the second.

Compared with `COc1c(C)cc2c(c1C)Cc1c-2[nH]c2ccccc12`, `Cc1ccc2c(C3=C(c4cn(C)c5ccccc45)C(=O)NC3=O)cn(C)c2c1` is higher in melting point: 177 °C for the first, 264 to 266 °C for the second.

First: OC(CNC1CCc2ccccc2C1)COc1cccc2[nH]ccc12 (stereo unspecified)
Second: O=c1ccn(CCO)c(C(O)c2ccc3c(c2)OCO3)c1OCc1ccccc1 (stereo unspecified)
The melting point of the first is lower: 65 to 68 °C for the first, 195 to 196 °C for the second.

Compared with `CCSN(C)C(=O)Nc1ccc(Cl)c(Cl)c1`, `CC(CC(=O)O)Nc1cccc(Cl)c1` (stereo unspecified) is lower in melting point: 71 °C for the first, 50 °C for the second.

First: CC(C)[Si](Oc1ccc2c(=O)c(N3CCC(O)(c4ccccc4)CC3)coc2c1)(C(C)C)C(C)C
Second: CC(=O)N(C#N)C1(c2ccc(OCc3ccc4ccccc4n3)cc2)CCCC1
The melting point of the first is higher: 163 to 164 °C for the first, 90 °C for the second.

First: CC1(C)CC(=C(c2ccc(O)cc2)c2ccc(CCO)cc2)CC(C)(C)C1
Second: CC(C)Oc1ccc(C(=O)NCCCCCCCNC(=O)c2ccc(OC(C)C)cc2)cc1
The melting point of the first is higher: 159 to 160 °C for the first, 135 to 136 °C for the second.

Compared with `Cc1cc(C(=O)NCCO)ncc1C(c1c(F)ccc(F)c1F)S(=O)(=O)CCC(F)(F)F` (stereo unspecified), `O=C(O)Cc1ccccc1Cc1nc2c(F)c(F)cc(F)c2s1` is lower in melting point: 146 to 147 °C for the first, 124 to 126 °C for the second.

Compared with `O=C1C2=NCCCN2c2cc(Cl)ccc21`, `CN(C)S(=O)(=O)c1ccc2c(c1)S(=O)(=O)N=C1CCCN12` is higher in melting point: 164 to 167 °C for the first, 251 to 253 °C for the second.

First: CN(CCCC(N)=O)Cc1ccc(Cl)cc1
Second: C[C@@H](NS(=O)(=O)c1ccc(Cl)cc1)[C@](O)(Cn1cncn1)c1ccc(Cl)cc1Cl (relative stereo)
The melting point of the first is lower: 62 to 64 °C for the first, 160 to 165 °C for the second.

First: CSc1ncccc1C1C(C(=O)OC(C)C)=C(C)NC(=S)N1C(=O)OC(C)C (stereo unspecified)
Second: CC(=O)Nc1ccc(OC(=O)C(CSSCC(NC(C)=O)C(=O)O)NC(C)=O)cc1 (stereo unspecified)
The melting point of the first is higher: 119 to 121 °C for the first, 95 to 99 °C for the second.

First: CCOP(=O)(OCC)c1ccc2cc(I)cc(-c3cccc4ccccc34)c2n1
Second: C(=Cc1cccc2ccccc12)c1ccc(-c2cc3ccccc3o2)cc1
The melting point of the first is lower: 127 to 128 °C for the first, 154 to 155 °C for the second.

Compared with `CCOC(=S)c1ccc2scc(C)c2c1`, `NS(=O)(=O)c1cc2cc(O)ccc2s1` is higher in melting point: 67 to 69 °C for the first, 192 to 194 °C for the second.

First: Cc1c(-c2ccccc2)n(-c2c(F)c(F)c(F)c(F)c2F)c(-c2ccccc2)cc1=O
Second: CC1=C(c2ccc(O)cc2)C(=O)c2c(O)cc(O)cc21
The melting point of the first is higher: 192 to 194 °C for the first, 126 to 129 °C for the second.

First: N#CCN1CCC(c2noc3cc(F)ccc23)CC1
Second: COc1ccc(CNc2nc(CN3CCC(C(=O)O)CC3)nc3oc4c(c23)CCCC4)cc1Cl
The melting point of the first is lower: 130 to 132 °C for the first, 233 to 235 °C for the second.

First: CNc1nc(C)c(C(=O)c2sc(NC)nc2C)s1
Second: CNC(=O)CCCCSc1nccc(NC(N)=NCC(F)(F)F)n1
The melting point of the first is higher: 184 to 185 °C for the first, 148 to 150 °C for the second.

First: CN1CC[C@H](c2ccccc2)[C@H](O)C1 (relative stereo)
Second: O=C(NC1C(=O)N(CC23CC4CC(CC(C4)C2)C3)c2ccccc2N(c2ccccc2)C1=O)Oc1ccccc1 (stereo unspecified)
The melting point of the first is lower: 95 to 97 °C for the first, 205 to 207 °C for the second.

Compared with `CC(C)CCCC(C)C1CCC2C3CC=C4CC(OCCCCCCN5C(=O)c6ccccc6C5=O)CCC4(C)C3CCC12C` (stereo unspecified), `C#CCN(Cc1cc2c(=O)n(C)c(CN3CCN(CCO)CC3)nc2cc1Cl)c1ccc(C(=O)NCc2cccnc2)cc1` is higher in melting point: 80 °C for the first, 115 to 117 °C for the second.
